# Measured values reported in patent US12194080B2, “Methods for identification, assessment, prevention, and treatment of metabolic disorders using PM20D1 and N-lipidated amino acids” (Dana-Farber Cancer Institute, Inc., priority 2015, dated 2025).
# Assays:
# [1] = system: differentiated primary BAT cells; experiment: Cellular oxygen consumption rate (Seahorse XF24), differentiated primary BAT adipocytes; format: cell-based, mouse; conditions: 50 μM, in presence of oligomycin (1 μM)
# Description: C2C12, U2O5, and 293A cells were cultured in DMEM with 10% FBS and pen/strep. Primary inguinal (iWAT) and brown (BAT) adipocytes were obtained as follows. The stromal-vascular fraction of inguinal (iWAT) pad from 4-12 week old male mice was dissected, minced, and digested for 45 min. at 37° C. in PBS containing 10 mM CaCl2, 2.4 U/ml dispase II (Roche), and 1.5 U/ml collagenase D (Roche). The stromal-vascular fraction of brown fat (BAT) pads from newborn (P1-P14) pups was dissected, minced, and digested for 45 min at 37° C. in PBS containing 1.3 mM CaCl2, 120 mM NaCl, 5 mM KCl, 5 mM glucose, 100 mM HEPES, 4% BSA, and 1.5 mg/ml collagenase B (Roche). […]
# Cellular oxygen consumption rates were determined using an XF24 Extracellular Flux Analyzer (Seahorse Biosciences). […] C2C12 or U2OS cells were seeded at 30,000 or 50,000 cells/well, respectively in an XF24 cell culture microplate (V7-PS, Seahorse Bioscience) and analyzed the following day. Primary iWAT or BAT adipocytes were seeded at 15,000 cells/well, differentiation was induced the following day as described, and the cells were analyzed on day 5. […] For data expressed as a percentage of oligomycin-treated basal, the respiration at cycle 6 was normalized to 100%, and the maximum respiration at any time point between cycles 7 and 15 inclusive was used.
# [2] = Blood levels after a single i.p. dose; format: in vivo; conditions: C57BL/6, mouse, ip, single 30 mg/kg i.p. dose, mean±SEM, n=3
# Description: Animal experiments were performed according to procedures approved by the Beth Israel Deaconess Medical Center IACUC. Mice were maintained in 12 h light-dark cycles at 22° C. and fed a standard irradiated rodent chow diet. All experiments on wild-type mice were performed with male C57BL/6 mice purchased from Jackson Laboratories, except for the AAV experiments, which were performed with male C57BL/6 mice from Charles River. UCP1-KO (stock #017476) and 16-20 week DIO mice (stock #380050) were obtained from Jackson Laboratories. For AAV injection experiments, mice were gently warmed using a 250 W clear infrared heat lamp, immobilized, and injected via tail vein with 10^10 virus/mouse (diluted in saline) in a total volume of 100 μl/mouse. Where indicated, mice were placed on high-fat diet (60% fat, Research Diets). For cold exposure experiments, mice were group housed and placed at 4° C. for the indicated times. For the preparation of C18:1-Phe for in vivo injections, compounds were dissolved in 18:1:1 v/v/v saline:Kolliphor® EL (Sigma Aldrich):DMSO and sonicated until homogeneous. Mice were administered compounds at 5 μl/g body weight at the indicated doses. For all injection experiments, mice were mock injected with saline daily for 3 days prior to the start of the experiments. […]
# C2C12 cells = experiment: Mitochondrial membrane potential by TMRM fluorescence; format: cell-based, mouse; conditions: co-treatment with oligomycin 1 μM, 20 min; C18:1-Phe 50 μM, FCCP 0.4 μM
# Description: Mitochondrial membrane potential was measured using tetramethylrhodamine methyl ester (TMRM, Life Technologies) fluorescence. C2C12 cells were plated in 6-well plates and grown to 80-90% confluence. Cells were then washed once with PBS and switched into Seahorse respiration buffer with the indicated compounds at the indicated concentrations: TMRM (100 nM), oligomycin (1 μM), FCCP (0.4 μM), and C18:1-Phe (10 or 50 μM). After 20 min. incubation at 37° C., the media was aspirated, cells were washed once with PBS, and trypsinized. Trypsinized cells were directly resuspended in PBS (total volume 300 μl), stored on ice, and analyzed on a FACSCanto™ II (BD Biosciences) with 20,000 events per sample.
# [3] = system: primary inguinal fat cells, primary BAT cells, C2C12 cells, and U2OS cells; experiment: Uncoupled respiration cellular assays (variety of cell types); format: cell-based; conditions: N-acyl amino acids at 10-100 uM
compound,measurement,setting,value
"CCCCCCCC/C=C\CCCCCCCC(=O)N[C@@H](Cc1ccccc1)C(=O)O [C18:1-Phe, Oleoyl-L-phenylalanine]",maximal OCR versus DMSO at the same time point,[1],156%
same,maximal OCR versus oligomycin-treated basal respiration,[1],198%
same,concentration at 2 h,[2]; 2 h post-injection,3 ± 0.3 µM
same,concentration at 6 h,[2]; 6 h post-injection,0.4 ± 0.1 µM
same,decrease of TMRM fluorescence,C2C12 cells,~45%
same,uncoupled respiration in cells,[3],increased uncoupled respiration
